Reference: patent publication US20190321365A1, “Maintenance Therapy for the Treatment of Cancer” (Aslan Pharmaceuticals Pte. Ltd., priority 2016, published 2019)
Like-named read-outs stand apart in the source and are kept apart here.

Legend:
[1] = General tolerability in patients; assay type: in vivo, human; settings: in comparison to many anti-cancer treatments
[2] = test system: intrahepatic cholangiocarcinoma; assay: Example 3: trial ASLAN001-002SG, maintenance monotherapy, patient with intrahepatic cholangiocarcinoma; assay type: in vivo, human
Excerpt: A person ([…]/0013) had the past history of meningioma post left craniotomy for tumor excision in 2007. They were diagnosed with intrahepatic cholangiocarcinoma in July 2013, and received left hemihepatectomy followed by adjuvant chemotherapy (gemcitabine plus cisplatin) from 14 Aug. 2013 to 8 Jan. 2014. Disease relapse was found in […]. Thus, they received systemic treatment with gemcitabine plus cisplatin from 13th May to 1 Jul. 2015. They joined the clinical trial, […]. The study treatment of bi-weekly FOLFOX plus continuous 400 mg varlitinib per oral twice a day started on 4 Aug. 2015. […] 2015, varlitinib was interrupted and reduced to 300 mg twice a day in combination with FOLFOX. After 9 cycles (14 days/cycle) of combined regimen, they continue varlitinib monotherapy.

[3] = test system: gastric tumors co-expressing EGFR and HER2 or HER2 amplified; assay: Phase I monotherapy trial in gastric cancer patients, tumor biopsies by immunohistochemistry; assay type: in vivo, human; settings: 23 patients, 500 mg orally twice daily, monotherapy for 28 days; biopsies before and after treatment
Experimental: It has been tested as a monotherapy in phase I clinical trials of gastric cancer patients. 23 patients, who had previously failed on one or more rounds of chemotherapy and, where eligible, trastuzumab, each received 500 mg of ASLAN001 orally twice daily as monotherapy for 28 days. Tumor biopsies taken before and after treatment were analysed using immunohistochemistry.

[4] = test system: squamous cell carcinoma of the cervix; assay: Example 1: maintenance therapy, patient with squamous cell carcinoma of the cervix; assay type: in vivo, human; settings: 300 mg bi-daily; one patient, progressing after radiation and chemotherapy
Experimental: A patient diagnosed with squamous cell carcinoma of the cervix was initially treated with radiation therapy and concurrent weekly cisplatin. They had recurring disease the following year. They subsequently received a number of lines of chemotherapy, including topotecan/cisplating and ifosfamide. The cancer continued to progress.
They received 300 mg bi-daily of varlitinib for 6.5 years.
The patient received varlitinib maintenance therapy for about 6.5 years before developing transitional cell carcinoma of the bladder. It is likely that this bladder carcinoma was a result receiving pelvic radiation and/or treatment with ifsoamide.

[5] = test system: choloangiocarcinoma (CCA); assay: Example 2: maintenance monotherapy, patient with cholangiocarcinoma; assay type: in vivo, human
Experimental: A person with choloangiocarcinoma (CCA), namely […] adenocarcinoma had already received surgery, was administered varlitinib at a dose of 400 mg bi-daily in combination with doublet chemotherapy for six 28-day cycles. Varlitinib was then used as maintenance therapy as monotherapy for 10 additional cycles, of 28 days of treatment.

stage IV bladder cancer = assay: Example 6: trial ASLAN001-002SG, maintenance monotherapy, patient with stage IV bladder cancer; assay type: in vivo, human
Excerpt: A person (ASLAN001-002SG DNT/0012) had the past history of type 2 diabetes mellitus, atrial fibrillation, hypertension, hyperlipidemia, and grade 1 hearing loss. They were diagnosed with stage IV bladder cancer and received radical cystoprostatectomy on 13 Dec. 2013. They also received cisplatin based concurrent radiotherapy on 20 Feb. 2014, and gemcitabine plus cisplatin from 10 Apr. to 8 May 2015.
They joined the clinical trial, ASLAN001-002SG. The study treatment of bi-weekly FOLFOX plus continuous 300 mg varlitinib per oral twice a day started on 24 Aug. 2015. After 9 cycles (14 days/cycle) of combined regimen, they continued varlitinib monotherapy. The total treatment duration of varlitinib maintenance therapy was 140 days. […] The study treatment was discontinued due to disease progression.

stage IV gastric cancer [6] = assay: Example 5: trial ASLAN001-002, maintenance monotherapy, patient with stage IV gastric cancer; assay type: in vivo, human
Experimental: A person (ASLAN001-002 2A102) had the past history of hypertension for more than 5 years. They were diagnosed with stage IV gastric cancer in April 2015.
They joined the clinical trial, ASLAN001-002. The study treatment of cisplatin/5-FUplus continuous 400 mg varlitinib per oral twice a day started on 12 May 2015. After 6 cycles (28 days/cycle) of combined regimen, they continued 400 mg varlitinib monotherapy for another 112 days. […] The total treatment duration of varlitinib maintenance therapy was 243 days. […] The study treatment was discontinued due to disease progression.

[7] = test system: stage IV cholangiocarcinoma; assay: Example 4: trial ASLAN001-002, maintenance monotherapy, patient with stage IV cholangiocarcinoma; assay type: in vivo, human
Experimental: A person (ASLAN001-002 2A101) had the past history of type 2 diabetes mellitus and hypertension for more than 10 years. They were diagnosed with stage IV cholangiocarcinoma in November 2014.
They joined the clinical trial, ASLAN001-002. The study treatment of cisplatin/5-FU plus continuous 400 mg varlitinib per oral twice a day started on 27 Jan. 2015.
After 6 cycles (28 days/cycle) of combined regimen, […] continued 400 mg varlitinib monotherapy for another 99 days. […] The total treatment duration of varlitinib maintenance therapy was 287 days.
The study treatment was discontinued due to disease progression.

stage IV gastric cancer [8] = assay: Example 7: trial ASLAN001-002, maintenance monotherapy, patient with stage IV gastric cancer; assay type: in vivo, human
Experimental: A person (ASLAN001-002 2B302) had the underlying disease of gastro-esophageal reflux disease. They were diagnosed with stage IV gastric cancer in Jul. 2016.
They joined the clinical trial, ASLAN001-002. The study treatment of cisplatin/capecitabine plus continuous 300 mg varlitinib per oral twice a day started on 6 Sep. 2016. After 6 cycles (21 days/cycle) of combined regimen, they continue varlitinib monotherapy. The total treatment duration of varlitinib maintenance therapy was 134 days. […] The study treatment was discontinued due to disease progression.

breast cancer = settings: cited from earlier work
[9] = women who didn't take hormone replacement therapy

In the case of `C[C@@H]1COC(Nc2ccc3ncnc(Nc4ccc(OCc5nccs5)c(Cl)c4)c3c2)=N1` [varlitinib, (R)-N4-[3-Chloro-4-(thiazol-2-ylmethoxy)-phenyl]-N6-(4-methyl-4,5,-dihydro-oxazol-2-yl)-quinazoline-4,6-diamine], the tolerability [1] is reported as “very well tolerated”, the “adverse event leading to interruption and dose reduction” value ([2]; 400 mg per oral twice a day in combination with bi-weekly FOLFOX) is reported as “grade 3 hyperbilirubinemia” and the tumor status ([2]; after 504 days of maintenance treatment) is reported as “partial response”. For the same compound, the “duration of maintenance treatment to date” value ([2]; person, monotherapy after 9 cycles with FOLFOX, 300 mg twice a day, ongoing) was 504 days, the “signs of clinical activity in tumor biopsies” value [3] was “downregulation of signalling pathways responsible for cell proliferation, and a reduction in cell survival and cell proliferation” and the “duration of maintenance therapy before developing transitional cell carcinoma of the bladder” value [4] was “about 6.5 years”. The “adverse event leading to dose reduction” value ([5]; monotherapy 400 mg bi-daily, at cycle 10 day 15) was “increase in G3 creatinine levels”, the “target lesion during maintenance therapy” value ([5]; period of 10 cycles of maintenance therapy) was “no target lesion was observed” and the “disease status during maintenance therapy” value ([5]; person, stage VI adenocarcinoma, monotherapy 400 then 300 mg bi-daily, 10 cycles of 28 days, after six cycles with doublet chemotherapy) was “stable disease”. The best tumor response (stage IV bladder cancer; human, in vivo) was “stable disease”, the “total treatment duration of maintenance therapy” value (shortened to “total treatment duration”) (stage IV bladder cancer; person, monotherapy after 9 cycles of FOLFOX plus 300 mg twice a day, discontinued due to disease progression) was 140 days and the “adverse event leading to dose tapering” value (stage IV gastric cancer [6]; after 112 days of 400 mg monotherapy) was “creatinine increase”. The best tumor response (stage IV gastric cancer [6]; human, in vivo) was “partial response”, the “total treatment duration” value (stage IV gastric cancer [6]; person, 400 mg monotherapy, then 300 mg twice a day, discontinued due to disease progression) was 243 days and the “adverse event leading to dose tapering” value ([7]; after 99 days of 400 mg monotherapy) was “creatinine increase”. The best tumor response ([7]; non-target disease) was “non-complete response/non-progressive disease”, the “total treatment duration” value ([7]; person, 400 mg monotherapy, then 300 mg twice a day 1 week on and 1 week off, discontinued due to disease progression) was 287 days and the best tumor response (stage IV gastric cancer [8]; human, in vivo) was “stable disease”. The “total treatment duration” value (stage IV gastric cancer [8]; person, monotherapy after 6 cycles of cisplatin/capecitabine plus 300 mg twice a day, discontinued due to disease progression) was 134 days.
For `CC/C(=C(\c1ccccc1)c1ccc(OCCN(C)C)cc1)c1ccccc1` [tamoxifen], the “reduction of the risk of breast cancer” value (breast cancer; women at high risk, long-term study) is given as 29%, the “effect on the risk of estrogen-receptor-negative breast cancer” value (breast cancer; women at high risk) is given as “didn't reduce the risk” and the “reduction of the risk of estrogen-receptor-positive breast cancer” value (breast cancer; women at high risk) is given as 35%. For the same compound, the “reduction of the risk of breast cancer” value (breast cancer; [9]) was 38% and the “reduction of the risk of estrogen-receptor-positive disease” value (breast cancer; [9]) was 45%.
